Where two headings read alike, the source gives them in different places.
Experiments:
Test in all cases: Thermal stability shift assay
Format in all cases: binding
PKD2 = target: T1, PKD2 (Homo sapiens, UniProt Q9BZL6); conditions: read-out: Tm shift PKD2
T1 sequence (Q9BZL6 1-878): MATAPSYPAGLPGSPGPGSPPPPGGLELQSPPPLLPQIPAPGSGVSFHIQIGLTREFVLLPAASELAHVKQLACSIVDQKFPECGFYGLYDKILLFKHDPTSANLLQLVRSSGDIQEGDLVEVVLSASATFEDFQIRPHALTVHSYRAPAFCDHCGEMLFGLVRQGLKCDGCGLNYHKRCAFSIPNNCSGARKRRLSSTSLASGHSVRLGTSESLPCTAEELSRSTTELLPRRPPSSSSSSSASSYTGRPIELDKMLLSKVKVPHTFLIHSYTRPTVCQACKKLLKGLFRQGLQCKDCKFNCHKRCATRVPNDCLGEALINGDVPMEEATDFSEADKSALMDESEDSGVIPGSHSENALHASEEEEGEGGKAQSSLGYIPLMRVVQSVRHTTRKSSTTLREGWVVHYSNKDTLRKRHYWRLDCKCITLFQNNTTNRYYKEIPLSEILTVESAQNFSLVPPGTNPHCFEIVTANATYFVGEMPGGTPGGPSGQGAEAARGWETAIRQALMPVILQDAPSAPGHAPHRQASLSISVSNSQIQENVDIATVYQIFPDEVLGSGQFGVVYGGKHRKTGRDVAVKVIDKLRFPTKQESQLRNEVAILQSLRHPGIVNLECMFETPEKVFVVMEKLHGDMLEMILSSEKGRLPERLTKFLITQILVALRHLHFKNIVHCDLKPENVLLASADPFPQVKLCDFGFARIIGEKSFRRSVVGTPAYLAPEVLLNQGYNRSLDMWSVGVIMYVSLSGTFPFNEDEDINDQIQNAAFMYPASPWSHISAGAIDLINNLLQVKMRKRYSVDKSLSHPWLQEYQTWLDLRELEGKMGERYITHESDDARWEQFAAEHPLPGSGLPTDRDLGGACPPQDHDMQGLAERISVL
Protocol: (§1) Thermal denaturation experiments were carried out in an Mx3005p real-time PCR machine (Agilent) using a protein concentration of 2 μM and an inhibitor concentration of 10 μM. Samples were buffered in 10 mM HEPES (pH 7.5), 500 mM NaCl and a 1:1000 dilution of SyproOrange (Invitrogen). The assay and data evaluation were carried out as described ([Bullock et al., 2005])

MST4 = target: T2, MST4 (Homo sapiens, UniProt Q9P289); conditions: read-out: Tm shift MST4
T2 construct: purchased in-house (SGC Oxford thermal shift panel)
Protocol: as §1

JAK1 = target: T3, JAK1 (Homo sapiens, UniProt P23458); conditions: read-out: Tm shift JAK1
T3 construct: purchased in-house (SGC Oxford thermal shift panel)
Protocol: as §1

PKG1 = target: T4, PKG1 (Homo sapiens, UniProt Q13976); conditions: read-out: Tm shift PKG1
T4 sequence (Q13976 1-671): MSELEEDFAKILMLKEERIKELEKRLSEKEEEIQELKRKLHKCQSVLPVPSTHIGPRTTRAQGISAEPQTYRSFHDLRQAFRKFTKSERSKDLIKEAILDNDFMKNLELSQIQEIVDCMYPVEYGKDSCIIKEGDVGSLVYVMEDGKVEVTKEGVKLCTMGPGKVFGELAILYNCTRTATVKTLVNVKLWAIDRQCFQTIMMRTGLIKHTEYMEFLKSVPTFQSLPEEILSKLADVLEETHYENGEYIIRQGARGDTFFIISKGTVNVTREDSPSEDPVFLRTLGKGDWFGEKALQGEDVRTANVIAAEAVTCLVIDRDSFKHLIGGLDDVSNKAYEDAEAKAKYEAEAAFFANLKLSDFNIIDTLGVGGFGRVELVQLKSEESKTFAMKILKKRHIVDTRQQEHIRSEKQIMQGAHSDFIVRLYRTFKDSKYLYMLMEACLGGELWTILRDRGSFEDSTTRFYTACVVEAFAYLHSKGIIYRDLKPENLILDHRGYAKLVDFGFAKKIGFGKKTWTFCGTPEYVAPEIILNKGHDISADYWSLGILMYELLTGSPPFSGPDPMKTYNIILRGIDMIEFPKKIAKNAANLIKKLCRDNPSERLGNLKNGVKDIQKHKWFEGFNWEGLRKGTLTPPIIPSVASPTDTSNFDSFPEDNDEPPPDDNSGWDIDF
Protocol: as §1

ALK4 = target: T5, ALK4 (Homo sapiens, UniProt P36896); conditions: read-out: Tm shift ALK4
T5 sequence (P36896 24-505): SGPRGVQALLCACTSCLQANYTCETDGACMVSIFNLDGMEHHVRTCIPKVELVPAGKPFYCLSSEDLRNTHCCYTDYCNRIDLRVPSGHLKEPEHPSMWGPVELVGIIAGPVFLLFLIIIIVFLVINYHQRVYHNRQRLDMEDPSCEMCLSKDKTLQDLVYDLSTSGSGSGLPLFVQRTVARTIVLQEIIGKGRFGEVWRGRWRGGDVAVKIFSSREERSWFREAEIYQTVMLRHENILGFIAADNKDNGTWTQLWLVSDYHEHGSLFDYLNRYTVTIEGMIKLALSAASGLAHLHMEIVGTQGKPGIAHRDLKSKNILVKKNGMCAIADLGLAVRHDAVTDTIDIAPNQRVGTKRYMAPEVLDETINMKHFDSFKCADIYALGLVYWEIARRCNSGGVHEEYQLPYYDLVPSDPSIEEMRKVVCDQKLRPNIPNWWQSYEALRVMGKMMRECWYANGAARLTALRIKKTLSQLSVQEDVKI
Protocol: as §1

SRPK2 = SRPK2 (Homo sapiens, UniProt P78362); conditions: read-out: Tm shift SRPK2
Protocol: as §1

RSK2~C = target: T6, RSK2~C (Homo sapiens, UniProt P51812); conditions: read-out: Tm shift RSK2~C
T6 construct: RSK2~C 2.7 12.3 2.0 1.0 1.3 -0.2 0.4
Protocol: as §1

AKT3 = AKT3 (Homo sapiens, UniProt Q9Y243); conditions: read-out: Tm shift AKT3
Protocol: as §1

Chain of AKT3 (Q9Y243 whole entry): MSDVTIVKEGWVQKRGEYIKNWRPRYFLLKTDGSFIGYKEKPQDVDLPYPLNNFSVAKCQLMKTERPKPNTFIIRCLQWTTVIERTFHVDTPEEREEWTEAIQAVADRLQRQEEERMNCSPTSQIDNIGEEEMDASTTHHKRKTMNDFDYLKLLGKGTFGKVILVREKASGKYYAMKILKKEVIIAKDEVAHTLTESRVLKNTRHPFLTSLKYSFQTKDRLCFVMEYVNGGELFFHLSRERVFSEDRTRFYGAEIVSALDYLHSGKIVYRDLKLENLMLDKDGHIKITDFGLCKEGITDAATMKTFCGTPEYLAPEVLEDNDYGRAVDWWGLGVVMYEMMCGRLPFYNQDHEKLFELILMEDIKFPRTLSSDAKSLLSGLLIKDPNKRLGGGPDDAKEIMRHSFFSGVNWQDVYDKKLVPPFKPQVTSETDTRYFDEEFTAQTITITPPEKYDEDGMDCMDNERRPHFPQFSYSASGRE
T2 sequence (Q9P289 whole entry): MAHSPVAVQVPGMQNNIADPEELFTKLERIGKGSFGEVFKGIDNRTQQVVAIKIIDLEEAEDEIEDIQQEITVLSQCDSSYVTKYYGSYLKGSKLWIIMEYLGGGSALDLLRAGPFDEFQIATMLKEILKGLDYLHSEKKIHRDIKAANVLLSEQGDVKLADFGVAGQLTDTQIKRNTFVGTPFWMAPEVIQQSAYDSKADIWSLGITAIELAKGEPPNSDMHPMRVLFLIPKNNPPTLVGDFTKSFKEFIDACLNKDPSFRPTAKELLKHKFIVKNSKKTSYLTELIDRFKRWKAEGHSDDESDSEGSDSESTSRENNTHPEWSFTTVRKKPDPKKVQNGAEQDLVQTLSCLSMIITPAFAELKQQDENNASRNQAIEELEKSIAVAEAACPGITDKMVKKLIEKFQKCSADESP
Chain of SRPK2 (P78362 whole entry): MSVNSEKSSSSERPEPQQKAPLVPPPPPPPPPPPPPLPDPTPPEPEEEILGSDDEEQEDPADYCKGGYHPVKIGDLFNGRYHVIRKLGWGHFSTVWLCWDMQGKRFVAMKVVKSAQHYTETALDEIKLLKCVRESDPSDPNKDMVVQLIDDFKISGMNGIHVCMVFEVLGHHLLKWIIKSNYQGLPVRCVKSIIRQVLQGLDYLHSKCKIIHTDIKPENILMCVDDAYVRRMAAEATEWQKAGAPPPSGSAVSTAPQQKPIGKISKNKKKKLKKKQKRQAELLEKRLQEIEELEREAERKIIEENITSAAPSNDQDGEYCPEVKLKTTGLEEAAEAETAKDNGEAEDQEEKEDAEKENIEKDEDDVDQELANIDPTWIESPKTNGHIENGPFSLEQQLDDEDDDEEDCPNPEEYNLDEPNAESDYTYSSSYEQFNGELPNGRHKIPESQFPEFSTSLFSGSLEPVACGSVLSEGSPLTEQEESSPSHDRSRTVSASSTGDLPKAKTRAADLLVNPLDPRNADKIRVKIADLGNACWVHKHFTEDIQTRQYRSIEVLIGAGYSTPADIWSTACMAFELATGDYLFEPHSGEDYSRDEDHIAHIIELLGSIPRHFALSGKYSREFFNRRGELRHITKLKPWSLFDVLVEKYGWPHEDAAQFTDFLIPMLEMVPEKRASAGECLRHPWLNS
T6 sequence (P51812 422-679 limits assumed): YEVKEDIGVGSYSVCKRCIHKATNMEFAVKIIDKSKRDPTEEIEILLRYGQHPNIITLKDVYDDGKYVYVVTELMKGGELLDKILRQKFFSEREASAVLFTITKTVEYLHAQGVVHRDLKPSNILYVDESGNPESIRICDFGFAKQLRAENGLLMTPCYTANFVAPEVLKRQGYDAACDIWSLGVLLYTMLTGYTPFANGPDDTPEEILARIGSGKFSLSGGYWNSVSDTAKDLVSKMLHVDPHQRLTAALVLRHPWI
T3 sequence (P23458 whole entry): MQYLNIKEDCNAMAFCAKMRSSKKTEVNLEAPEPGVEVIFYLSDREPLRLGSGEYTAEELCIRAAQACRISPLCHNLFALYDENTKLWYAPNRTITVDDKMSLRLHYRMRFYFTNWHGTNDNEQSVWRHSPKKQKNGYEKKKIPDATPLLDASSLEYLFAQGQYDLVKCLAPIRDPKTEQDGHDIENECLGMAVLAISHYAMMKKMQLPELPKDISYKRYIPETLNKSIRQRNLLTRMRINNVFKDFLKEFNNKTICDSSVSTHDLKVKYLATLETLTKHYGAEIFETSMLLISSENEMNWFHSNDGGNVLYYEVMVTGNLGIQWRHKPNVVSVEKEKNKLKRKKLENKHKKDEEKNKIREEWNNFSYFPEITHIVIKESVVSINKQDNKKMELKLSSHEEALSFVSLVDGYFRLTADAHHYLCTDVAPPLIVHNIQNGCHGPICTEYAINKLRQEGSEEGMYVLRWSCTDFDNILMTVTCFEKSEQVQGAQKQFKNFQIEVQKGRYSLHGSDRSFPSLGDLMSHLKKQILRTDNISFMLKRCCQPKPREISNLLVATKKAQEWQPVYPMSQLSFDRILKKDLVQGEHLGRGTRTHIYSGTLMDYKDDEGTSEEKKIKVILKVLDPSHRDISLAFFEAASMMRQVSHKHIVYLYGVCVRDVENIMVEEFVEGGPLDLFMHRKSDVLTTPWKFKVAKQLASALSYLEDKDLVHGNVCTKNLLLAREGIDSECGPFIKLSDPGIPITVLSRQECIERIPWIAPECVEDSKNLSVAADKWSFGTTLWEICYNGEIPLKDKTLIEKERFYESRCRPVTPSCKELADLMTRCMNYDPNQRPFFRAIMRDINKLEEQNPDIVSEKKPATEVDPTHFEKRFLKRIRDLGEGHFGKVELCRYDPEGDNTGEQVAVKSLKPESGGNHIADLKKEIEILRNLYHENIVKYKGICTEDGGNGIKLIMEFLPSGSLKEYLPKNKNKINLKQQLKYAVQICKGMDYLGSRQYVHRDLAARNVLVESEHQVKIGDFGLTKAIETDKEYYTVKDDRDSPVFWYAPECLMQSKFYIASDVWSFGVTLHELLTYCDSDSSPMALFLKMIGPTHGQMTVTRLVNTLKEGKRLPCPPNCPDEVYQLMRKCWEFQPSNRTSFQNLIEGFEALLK

Row | Structure (SMILES) | ΔTm at 10 µM (PKD2) | ΔTm at 10 µM (MST4) | ΔTm at 10 µM (JAK1) | ΔTm at 10 µM (PKG1) | ΔTm at 10 µM (ALK4) | ΔTm at 10 µM (SRPK2) | ΔTm at 10 µM (RSK2~C) | ΔTm at 10 µM (AKT3) | ΔTm at 10 µM (PKD2; inhibitor 10 μM) | ΔTm at 10 µM (MST4; inhibitor 10 μM) | ΔTm at 10 µM (JAK1; inhibitor 10 μM) | ΔTm at 10 µM (PKG1; inhibitor 10 μM) | ΔTm at 10 µM (ALK4; inhibitor 10 μM) | ΔTm at 10 µM (SRPK2; inhibitor 10 μM) | ΔTm at 10 µM (RSK2~C; inhibitor 10 μM) | ΔTm at 10 µM (AKT3; inhibitor 10 μM)
1 | CCOC(=O)c1c(C(C#N)=CN)c2ccc(Cl)c(Cl)c2n1C (mixture of isomers) [KH-CB20, (E/Z)-Ethyl 3-(2-Amino-1-Cyanovinyl)-6,7-Dichloro-1-Methyl-1H-Indole-2-Carboxylate] | -0.2 °C | 0.1 °C | 1 °C | 0.5 °C | 1.4 °C | 0.5 °C | 1 °C | -0.3 °C | – | – | – | – | – | – | – | –
2 | CCOC(=O)c1c(C(C#N)=CN(C)C)c2ccc(Cl)c(Cl)c2n1C (mixture of isomers) [compound 2, (E/Z)-Ethyl 6,7-Dichloro-3-[1-Cyano-2-(Dimethylamino)Vinyl]-1-Methyl-1H-Indole-2-Carboxylate] | – | – | – | – | – | – | – | – | 0 °C | -0.6 °C | 0.2 °C | 0.3 °C | 4 °C | -0.1 °C | -0.2 °C | -0.2 °C
3 | NC1=NC(=O)/C(=C2\CCNC(=O)c3[nH]c(Br)cc32)N1 [Hymenialdisine, hymenialdisine, reference compound] | – | – | – | – | – | – | – | – | 0.8 °C | 4.6 °C | 0.3 °C | 1.4 °C | 4.9 °C | -0.2 °C | 2.7 °C | 1.3 °C
4 | CCOC(=O)c1c(/C(C#N)=C\N)c2ccc(Cl)c(Cl)c2n1C [KH-CB19, (E)-Ethyl 3-(2-Amino-1-Cyanovinyl)-6,7-Dichloro-1-Methyl-1H-Indole-2-Carboxylate] | 0.1 °C | 2.4 °C | 0.7 °C | 0.8 °C | 1.2 °C | 0.1 °C | 2 °C | -0.2 °C | – | – | – | – | – | – | – | –
5 | Cn1c2c(Cl)c(Cl)ccc2c2c(C#N)c[nH]c(=O)c21 [compound 3, 7,8-Dichloro-9-Methyl-1-Oxo-2,9-Dihydro-1H-Pyrido[3,4-b]Indole-4-Carbonitrile] | – | – | – | – | – | – | – | – | 0.1 °C | 0.4 °C | 0.9 °C | 0.6 °C | 0.9 °C | 0.2 °C | 1.3 °C | 0.1 °C

— paper PMC3145970, “Specific CLK Inhibitors from a Novel Chemotype for Regulation of Alternative Splicing” (Chemistry & Biology, 2011)
